ChEMBL document CHEMBL5137027, “Discovery of quinazoline derivatives CZw-124 as a pan-TRK inhibitor with potent anticancer effects in vitro and in vivo” (Eur J Med Chem, 2022)

Columns and labels:
[1] = target: High affinity nerve growth factor receptor (Homo sapiens, UniProt P04629); experiment: Inhibition of […] human TRKA (436 to 790 residues) expressed in baculovirus expression system using TK as substrate measured after 30 mins in presence of ATP by HTRF assay
KM12 [2] = experiment: Antiproliferative activity against human KM12 cells assessed as inhibition of cell growth incubated for 72 hrs by CCK8 assay; format: functional, cell-based; conditions: KM12, 72 h
BaF3 [3] = experiment: Antiproliferative activity against mouse BaF3 cells harboring TRKA F589L mutant assessed as inhibition of cell growth incubated for 72 hrs by CCK8 assay; format: functional, cell-based; conditions: BaF3, 72 h
BaF3 [4] = experiment: Antiproliferative activity against mouse BaF3 cells harboring TRKA G595R mutant assessed as inhibition of cell growth incubated for 72 hrs by CCK8 assay; format: functional, cell-based; conditions: BaF3, 72 h
BaF3 [5] = experiment: Antiproliferative activity against mouse BaF3 cells harboring TRKA G667C mutant assessed as inhibition of cell growth incubated for 72 hrs by CCK8 assay; format: functional, cell-based; conditions: BaF3, 72 h
[6] = Metabolic stability in human liver microsomes assessed as half life at 100 uM incubated for 60 mins under shaking condition in presence of NADPH by LC-MS/MS analysis; format: ADME, Microsome
[7] = Metabolic stability in human microsomes assessed as intrinsic clearance at 100 uM incubated for 60 mins under shaking condition in presence of NADPH by LC-MS/MS analysis; format: ADME, Microsome; conditions: read-out: CLH
[8] = Metabolic stability in human liver microsomes assessed as compound remaining at 100 uM incubated for 60 mins under shaking condition in absence of NADPH by LC-MS/MS analysis; format: ADME, Microsome; conditions: read-out: Stability
[9] = Metabolic stability in human liver microsomes assessed as compound remaining at 100 uM incubated for 60 mins under shaking condition in presence of NADPH by LC-MS/MS analysis; format: ADME, Microsome; conditions: read-out: Stability
[10] = target: High affinity nerve growth factor receptor (Homo sapiens, UniProt P04629, G595R); experiment: Inhibition of TRKA G595R mutant (unknown origin)
A549 = experiment: Antiproliferative activity against human A549 cells assessed as inhibition of cell growth incubated for 72 hrs by CCK8 assay; format: functional, cell-based; conditions: A549, 72 h
KM12 [11] = experiment: Antitumor activity against human KM12 cells xenografted in nude BALB/c mouse assessed as tumor growth inhibition at 40 mg/kg, po qd measured every 3 days for 14 days; format: functional; conditions: KM12, 336 h, time 14 day, read-out: TGI
THLE-2 = experiment: Antiproliferative activity against human THLE-2 cells assessed as inhibition of cell growth incubated for 72 hrs by CCK8 assay; format: functional, cell-based; conditions: THLE-2, 72 h
[12] = Toxicity in nude BALB/c mouse xenografted with human KM12 cells assessed as changes in body weight at 40 mg/kg, po qd measured every 3 days for 14 days; format: organism-based; conditions: in vivo, 336 h, time 14 day
MCF7 = experiment: Antiproliferative activity against human MCF7 cells assessed as inhibition of cell growth incubated for 72 hrs by CCK8 assay; format: functional, cell-based; conditions: MCF7, 72 h

High affinity nerve growth factor receptor (Homo sapiens, UniProt P04629), sequence (P04629 whole entry, the tested form may be a part): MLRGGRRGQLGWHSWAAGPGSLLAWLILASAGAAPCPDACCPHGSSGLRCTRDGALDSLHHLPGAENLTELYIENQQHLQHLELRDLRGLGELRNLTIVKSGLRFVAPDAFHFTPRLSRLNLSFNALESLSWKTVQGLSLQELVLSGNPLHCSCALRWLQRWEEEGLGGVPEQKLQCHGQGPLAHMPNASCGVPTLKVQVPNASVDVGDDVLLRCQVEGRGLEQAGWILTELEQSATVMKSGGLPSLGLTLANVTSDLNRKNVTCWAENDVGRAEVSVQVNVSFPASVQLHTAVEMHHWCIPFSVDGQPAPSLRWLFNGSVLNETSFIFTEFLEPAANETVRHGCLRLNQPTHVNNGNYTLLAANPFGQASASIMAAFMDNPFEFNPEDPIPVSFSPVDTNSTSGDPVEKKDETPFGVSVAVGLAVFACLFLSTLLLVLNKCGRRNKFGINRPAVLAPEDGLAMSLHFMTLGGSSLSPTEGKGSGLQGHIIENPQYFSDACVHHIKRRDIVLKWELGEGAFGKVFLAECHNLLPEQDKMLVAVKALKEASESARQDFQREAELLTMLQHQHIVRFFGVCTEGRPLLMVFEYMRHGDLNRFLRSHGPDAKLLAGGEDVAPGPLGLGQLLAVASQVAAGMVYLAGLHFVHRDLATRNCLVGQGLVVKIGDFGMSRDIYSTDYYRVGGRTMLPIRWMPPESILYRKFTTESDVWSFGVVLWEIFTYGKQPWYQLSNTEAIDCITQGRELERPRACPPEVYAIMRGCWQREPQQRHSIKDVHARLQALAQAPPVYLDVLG
High affinity nerve growth factor receptor (Homo sapiens, UniProt P04629, G595R), sequence (P04629 33-796 G595R limits assumed): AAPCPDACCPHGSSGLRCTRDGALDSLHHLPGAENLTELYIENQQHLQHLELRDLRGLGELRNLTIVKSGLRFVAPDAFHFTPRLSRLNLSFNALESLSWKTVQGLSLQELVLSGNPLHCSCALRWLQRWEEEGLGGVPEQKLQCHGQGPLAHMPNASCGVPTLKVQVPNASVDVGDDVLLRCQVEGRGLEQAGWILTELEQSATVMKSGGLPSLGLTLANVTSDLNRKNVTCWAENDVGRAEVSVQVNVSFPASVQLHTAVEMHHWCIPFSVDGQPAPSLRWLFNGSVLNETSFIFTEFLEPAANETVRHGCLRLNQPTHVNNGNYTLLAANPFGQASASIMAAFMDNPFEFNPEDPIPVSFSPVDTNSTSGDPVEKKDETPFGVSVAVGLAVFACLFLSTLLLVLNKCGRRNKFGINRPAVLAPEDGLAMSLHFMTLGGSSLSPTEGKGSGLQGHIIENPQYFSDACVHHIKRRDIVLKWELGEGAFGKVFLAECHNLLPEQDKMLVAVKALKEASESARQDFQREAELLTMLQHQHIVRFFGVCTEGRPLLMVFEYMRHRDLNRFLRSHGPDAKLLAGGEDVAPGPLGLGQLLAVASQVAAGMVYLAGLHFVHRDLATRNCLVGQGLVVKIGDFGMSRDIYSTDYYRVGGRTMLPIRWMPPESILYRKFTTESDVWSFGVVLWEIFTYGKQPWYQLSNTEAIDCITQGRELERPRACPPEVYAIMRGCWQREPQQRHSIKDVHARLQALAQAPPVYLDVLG

Question: Which IC50 [1] does the source give for `Cc1cc(Nc2nc(NCc3c(F)cccc3F)nc3ccccc23)n[nH]1` here?
Answer: The IC50 was 160 nM.

Question: What does the source list for `CC(C)Oc1cc(Nc2nc(N[C@@H](C)c3ccc(F)cn3)ncc2Cl)n[nH]1`?
Answer: IC50 (KM12 [2]): 21 nM; IC50 (BaF3 [3]): 20 nM; IC50 (BaF3 [4]): 59 nM; IC50 (BaF3 [5]): 130 nM

Question: With `Cc1cc(Nc2nc(NCc3cc(F)ccc3F)nc3ccccc23)n[nH]1` as the compound, how does the IC50 [1] read?
Answer: Its IC50 is 7.5 nM.

Question: Which results are given for `Cc1cc(Nc2nc(NCc3ccc(F)cc3F)nc3cc(Cl)ccc23)n[nH]1`?
Answer: half-life at 100 µM [6]: 31.9 min; microsomal CLint at 100 µM [7]: 43.5 µL/min/mg; remaining at 1 h, 100 µM [8]: 99.5%; remaining at 1 h, 100 µM [9]: 28.1%

Question: For `Cc1cc(Nc2nc(NCc3ccc(F)cc3F)nc3ccc(F)cc23)n[nH]1`, which IC50 [1] is on record?
Answer: Its IC50 is 44 nM.

Question: Which results are given for `Cc1cc(Nc2nc(NCc3ccc(F)cc3F)nc3cc(C(F)(F)F)ccc23)n[nH]1`?
Answer: half-life at 100 µM [6]: 50.9 min; microsomal CLint at 100 µM [7]: 27.2 µL/min/mg; remaining at 1 h, 100 µM [8]: 98.3%; IC50 [1]: 57 nM; remaining at 1 h, 100 µM [9]: 43.4%

Question: With `Cc1ccc2c(Nc3cc(C)[nH]n3)nc(NCc3ccc(F)cc3F)nc2c1` as the compound, how does the half-life at 100 µM [6] read?
Answer: The half-life at 100 µM was 25.5 min.

Question: What about the microsomal CLint at 100 µM [7] of the same compound?
Answer: Its microsomal CLint at 100 µM is 54.3 µL/min/mg.

Question: And the remaining at 1 h, 100 µM [8]?
Answer: Its remaining at 1 h, 100 µM is 98.1%.

Question: What about the remaining at 1 h, 100 µM [9] of the same compound?
Answer: The remaining at 1 h, 100 µM was 20.2%.

Question: Which IC50 [10] does the source give for `Cc1cc(C(=O)NC(C)(C)C)cc(C#Cc2ccc3c4c(oc3c2)C(C)(C)c2cc(NS(C)(=O)=O)ccc2C4=O)n1` here?
Answer: The IC50 was 3000 nM.

Question: For `Cc1ccc(CNc2nc(Nc3cc(C)[nH]n3)c3ccccc3n2)cc1`, which IC50 [1] is on record?
Answer: The IC50 was 110 nM.

Question: Which IC50 (A549) does the source give for `O=C(Nc1cnn2ccc(N3CCC[C@H]3c3cc(F)ccc3F)nc12)N1CC[C@@H](O)C1` here?
Answer: Its IC50 is > 100000 nM.

Question: What about the inhibition in vivo at 40 mg/kg (KM12 [11]) of the same compound?
Answer: The inhibition in vivo at 40 mg/kg was 78%.

Question: What about the IC50 (THLE-2) of the same compound?
Answer: The IC50 was > 100000 nM.

Question: What about the Activity [12] of the same compound?
Answer: The Activity was “Non-Toxic”.

Question: And the IC50 (KM12 [2])?
Answer: Its IC50 is 7.1 nM.

Question: What about the IC50 (MCF7) of the same compound?
Answer: Its IC50 is > 100000 nM.

Question: And the IC50 (BaF3 [3])?
Answer: Its IC50 is 260 nM.

Question: What about the IC50 (BaF3 [4]) of the same compound?
Answer: Its IC50 is 2200 nM.

Question: And the IC50 (BaF3 [5])?
Answer: Its IC50 is 850 nM.

Question: Which results are given for `C[C@@H]1CCc2ncc(F)cc2[C@H]2CCCN2c2ccn3ncc(c3n2)C(=O)N1` [SELITRECTINIB]?
Answer: IC50 (KM12 [2]): 2.8 nM; IC50 (BaF3 [3]): 8.2 nM; IC50 (BaF3 [4]): 18 nM

Question: With `Cc1cc(Nc2nc(NCc3ccc(F)cc3)nc3ccccc23)n[nH]1` as the compound, how does the IC50 [1] read?
Answer: Its IC50 is 20 nM.

Question: For `Fc1ccc(CNc2nc(Nc3cc(C4CC4)[nH]n3)c3ccccc3n2)c(F)c1`, which half-life at 100 µM [6] is on record?
Answer: Its half-life at 100 µM is 25.8 min.

Question: And the microsomal CLint at 100 µM [7]?
Answer: Its microsomal CLint at 100 µM is 53.7 µL/min/mg.

Question: And the remaining at 1 h, 100 µM [8]?
Answer: Its remaining at 1 h, 100 µM is 104%.

Question: And the IC50 [1]?
Answer: Its IC50 is 4.7 nM.

Question: And the remaining at 1 h, 100 µM [9]?
Answer: The remaining at 1 h, 100 µM was 19.3%.

Question: For `Cc1cc(Nc2nc(NCc3ccc(C(F)(F)F)cc3)nc3ccccc23)n[nH]1`, which IC50 [1] is on record?
Answer: The IC50 was 1400 nM.

Question: Which IC50 [1] does the source give for `Cc1cc(Nc2nc(NCc3ccc(Cl)cc3)nc3ccccc23)n[nH]1` here?
Answer: The IC50 was 380 nM.

Question: For `Fc1ccc(CNc2nc(Nc3cc(C4CC4)[nH]n3)c3ccc(C(F)(F)F)cc3n2)c(F)c1`, which IC50 (A549) is on record?
Answer: The IC50 was 19000 nM.

Question: What about the IC50 (THLE-2) of the same compound?
Answer: Its IC50 is > 100000 nM.

Question: And the IC50 (KM12 [2])?
Answer: The IC50 was 28 nM.

Question: What about the IC50 [1] of the same compound?
Answer: Its IC50 is 17 nM.

Question: And the IC50 (MCF7)?
Answer: The IC50 was 9100 nM.

Question: And the IC50 (BaF3 [4])?
Answer: The IC50 was 1100 nM.

Question: Which IC50 [1] does the source give for `Fc1ccc(CNc2nc(Nc3cc(-c4ccccc4)[nH]n3)c3ccccc3n2)c(F)c1` here?
Answer: Its IC50 is 68 nM.

Question: With `Fc1ccc(CNc2nc(Nc3cc(C4CC4)[nH]n3)c3ccc(Br)cc3n2)c(F)c1` as the compound, how does the IC50 [1] read?
Answer: The IC50 was 150 nM.

Question: For `Cc1cc(Nc2nc(NCc3ccc(Br)cc3)nc3ccccc23)n[nH]1`, which IC50 [1] is on record?
Answer: Its IC50 is 180 nM.

Question: With `Cc1cc(Nc2nc(N3CCOCC3)nc3ccc(Cl)cc23)n[nH]1` as the compound, how does the IC50 [1] read?
Answer: Its IC50 is 350 nM.
